Laboratory results as given in patent US20260022143A1, “Cyclic Peptide Inhibitors of IL-23” (JANSSEN PHARMACEUTICA NV, priority 2022, published 2026).
Where two headings read alike, the source gives them in different places. Positions of bridges follow the written chain, without caps; N, C: chain ends. Non-standard residues stand in square brackets, D forms with d. Residues, ends and D or L forms follow the SMILES beside them. *: point of attachment. Me3N+(CH2)2O(CH2)2O(CH2)2CO = C[N+](C)(C)CCOCCOCCC(=O)*; CH2CH2OCH2CH2OCH2CH2NMe3+ = C[N+](C)(C)CCOCCOCC*; Trp(7-Me) = Cc1cccc2c(C[C@H](N)C(=O)O)c[nH]c12; 2Nal = N[C@@H](Cc1ccc2ccccc2c1)C(=O)O; 3Pal = N[C@@H](Cc1cccnc1)C(=O)O; Lys(Me) = CNCCCC[C@H](N)C(=O)O; Pen = CC(C)(S)[C@H](N)C(=O)O; Thp = NC1(C(=O)O)CCOCC1; X3 = C[N+](C)(C)CCCCC*; Sar = CNCC(=O)O

Tests used:
IL-23R = molecular target: T1, IL-23R (Homo sapiens, UniProt Q5VWK5); experiment: IL23R Reporter Assay; assay type: cell-based; settings: HEK293 cells containing IL-23R, IL-12RP1 and STAT-inducible firefly luciferase reporter; 10 ng/mL IL-23 (EC90); 5 h at 37° C.; read-out: IL23R Reporter Assay
T1 construct: host or cells: HEK293
T1 sequence (Q5VWK5 24-629): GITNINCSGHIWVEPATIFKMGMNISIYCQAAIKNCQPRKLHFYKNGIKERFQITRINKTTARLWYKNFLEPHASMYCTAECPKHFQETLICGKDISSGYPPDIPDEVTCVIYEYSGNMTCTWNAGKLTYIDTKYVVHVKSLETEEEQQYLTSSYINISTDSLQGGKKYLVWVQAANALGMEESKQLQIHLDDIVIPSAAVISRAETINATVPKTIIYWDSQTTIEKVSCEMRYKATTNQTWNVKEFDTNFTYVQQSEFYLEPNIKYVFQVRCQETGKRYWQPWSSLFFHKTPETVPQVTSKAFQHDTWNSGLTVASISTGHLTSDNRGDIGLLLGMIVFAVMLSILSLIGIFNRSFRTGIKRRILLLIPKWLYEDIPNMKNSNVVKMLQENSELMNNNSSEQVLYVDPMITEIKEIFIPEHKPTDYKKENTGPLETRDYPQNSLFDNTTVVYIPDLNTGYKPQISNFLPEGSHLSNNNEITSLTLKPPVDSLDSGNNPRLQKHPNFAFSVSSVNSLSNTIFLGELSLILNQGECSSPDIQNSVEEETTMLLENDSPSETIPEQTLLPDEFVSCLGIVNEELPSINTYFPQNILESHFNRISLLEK

[1] = Exposed Polar Surface Area (EPSA); assay type: physicochemical; settings: SFC on Chirex 3014 column; sample 1 mM DMSO stock; read-out: EPSA
Summary of the method: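 Polarity descriptor in Å² derived from retention time using 8 calibration standards re-run every 20 compounds. Duplicate injections of 1 mM DMSO stock; linear 5–60% modifier gradient (20 mM ammonium formate in MeOH) with CO2 at 4 mL/min, 35 °C, on a Chirex 3014 column.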

[2] = molecular target: T2, interleukin-23 (IL-23) receptor (Homo sapiens, UniProt Q5VWK5); experiment: PBMC pSTAT3 assay; assay type: cell-based
T2 construct: Cryopreserved peripheral blood mononuclear cells (PBMCs) from healthy donors were thawed; endogenous in cells; host or cells: cryopreserved PBMCs from healthy donors, expanded 4 days on anti-CD3 with IL-1
T2 sequence (Q5VWK5 24-629): T1 sequence (Q5VWK5 24-629)
Procedure: Cryopreserved peripheral blood mononuclear cells (PBMCs) from healthy donors were thawed and washed twice in ImmunoCult-XF T cell expansion medium (XF-TCEM) supplemented with CTL anti-aggregate wash. The cells were counted, resuspended at 2×10^5 cells per mL XF-TCEM supplemented with penicillin/streptomycin and 100 ng/mL IL-1 (BioLegend, 579404), and cultured in tissue culture flasks coated with anti-CD3 (eBioscience, 16-0037-85 or BD Pharmingen, 555329) at 37° C. in 5% CO2. On day 4 of culture, PBMCs were collected, washed twice in RPMI-1640 supplemented with 0.1% BSA (RPMI-BSA), and incubated in RPMI-BSA in upright tissue culture flasks for 4 hours at 37° C. in 5% CO2. Following this ‘starvation,’ a total of 6×10^4 cells in […] RPMI-BSA was transferred into each well of a 384-well plate pre-spotted with peptide or DMSO. The cells were incubated for 30 minutes prior to the addition of IL-23 at a final concentration of 5 ng/mL. The cells were stimulated with cytokine for 30 minutes at 37° C. in 5% CO2, transferred onto ice for 10 minutes, and lysed. Cell lysates were stored at −80° C. until phosphorylated STAT3 was measured using the phospho-STAT panel kit (Meso Scale Discovery, K15202D).

[3] = disulfide bond, 20-membered ring

Question: With `CC(=O)N(C)CCCC[C@@H]1NC(=O)[C@H](Cc2c[nH]c3c(C)cccc23)NC(=O)[C@H]([C@@H](C)O)NC(=O)[C@H](CC(=O)N(C)C)NC(=O)[C@@H](NC(=O)CCOCCOCC[N+](C)(C)C)C(C)(C)SSC(C)(C)[C@@H](C(=O)N[C@@H](Cc2ccc(OCCOCCOCC[N+](C)(C)C)cc2)C(=O)N[C@@H](Cc2ccc3ccccc3c2)C(=O)NC2(C(=O)N[C@@H](CCCCN(C)C(C)=O)C(=O)N[C@@H](CC(N)=O)C(=O)N[C@@H](Cc3cccnc3)C(=O)N(C)CC(=O)N(C)C)CCOCC2)NC1=O` [compound 181, cPEG3aCO-Pen(3)-N(N(Me)2)-T-7MeW-K(NMeAc)-Pen(3)-APEG3F-2Nal-THP-K(NMeAc)-N-3Pya-Sar-CON(Me)2] ({Me3N+(CH2)2O(CH2)2O(CH2)2CO}-[Pen]D(NMe2)T[Trp(7-Me)][Lys(Me)](Ac)[Pen]Y(CH2CH2OCH2CH2OCH2CH2NMe3+)[2Nal][Thp][Lys(Me)](Ac)N[3Pal][Sar]-NMe2; disulfide 1-6) as the compound, how does the IC50 (IL-23R) read?
Answer: 2 nM

Question: And the EPSA [1]?
Answer: 136 A^2

Question: What about the IC50 [2] of the same compound?
Answer: 0.037 nM

Question: Which results are given for `CC(=O)NCCCC[C@@H]1NC(=O)[C@H](Cc2c[nH]c3c(C)cccc23)NC(=O)[C@H]([C@@H](C)O)NC(=O)[C@H](CC(N)=O)NC(=O)[C@@H](NC(C)=O)C(C)(C)SSC(C)(C)[C@@H](C(=O)N[C@@H](Cc2ccc(OCCCCC[N+](C)(C)C)cc2)C(=O)N[C@@H](Cc2ccc3ccccc3c2)C(=O)NC2(C(=O)N[C@@H](CCCCNC(C)=O)C(=O)N[C@@H](CC(N)=O)C(=O)N[C@@H](Cc3cccnc3)C(=O)N(C)CC(N)=O)CCOCC2)NC1=O` [compound 281, MeCO-Pen(3)-N-T-7MeW-K(Ac)-Pen(3)-TMAPF-2Nal-THP-K(Ac)-N-3Pya-Sar-CONH2] (Ac-[Pen]NT[Trp(7-Me)]K(Ac)[Pen]Y(X3)[2Nal][Thp]K(Ac)N[3Pal][Sar]-NH2; disulfide 1-6 (inferred))?
Answer: IC50 (IL-23R): 1.6 nM; EPSA [1]: 158 A^2; IC50 [2]: 0.0075 nM

Question: Which ring closure, yield after HPLC ([3]; I2/MeOH, 20% MeCN/H2O, 0.56 mM) does the source give for “CF3CO-Pen(3)-N(N(Me)2)-T-7MeW-K(NMeAc)-Pen(3)-AEF-2Nal-THP-K(NMeAc)-N-3Pya-Sar-CON(Me)2” here?
Answer: 12.1%

Question: Which ring closure, yield after HPLC ([3]; I2/AcOH, MeCN/H2O, […]) does the source give for “MeCO-k(Me)3-Pen(3)-N(N(Me)2)-T-7MeW-K(NMeAc)-Pen(3)-AEF(N(Me)2)-2Nal-THP-E-N-3Pya-Sar-CON(Me)2” here?
Answer: 13.4%

Question: Which ring closure, yield after HPLC ([3]; I2/AcOH, MeCN/H2O, 2.05 mM) does the source give for “cPEG5aCO-Pen(3)-N(N(Me)2)-T-7MeW-Dab(NMecPEG5a)-Pen(3)-AEF-2Nal-THP-E-N-3Pya-Sar-CON(Me)2” here?
Answer: 10%
